According to publication PMC8842277, “Highly Antiproliferative Latonduine and Indolo[2,3-c]quinoline Derivatives: Complex Formation with Copper(II) Markedly Changes the Kinase Inhibitory Profile” (Journal of Medicinal Chemistry, 2022):
Read-outs that look alike come from different tables or passages of the source.

Experiments:
[1] = tested on: doxorubicin-sensitive Colo205 human colon adenocarcinoma cells; test: MTT antiproliferative assay; format: cell-based; settings: for selectivity factor (SF) Colo205: IC50 MRC-5/IC50 Colo205; for IC50: MTT, 72 h
Description: (§1) The in vitro antiproliferative activity of the compounds was tested in doxorubicin-sensitive Colo205 and multidrug-resistant Colo320 human colon adenocarcinoma cell lines as well as in normal human embryonal lung fibroblast cells (MRC-5) by MTT assay.
(§2) Human colonic adenocarcinoma cell lines Colo 205 doxorubicin-sensitive (ATCC-CCL-222) and Colo 320/MDR-LRP multidrug resistant over-expressing ABCB1 (MDR1)-LRP (ATCC-CCL-220.1) were purchased from LGC Promochem, Teddington, UK. The cells were cultured in an RPMI 1640 medium supplemented with 10% heat-inactivated fetal bovine serum, 2 mM L-glutamine, 1 mM Na-pyruvate, and 10 mM HEPES. The semi-adherent human colon cancer cells were detached with Trypsin-Versene (EDTA) solution for 5 min at 37 °C. An MRC-5 human embryonal lung fibroblast cell line (ATCC CCL-171) was purchased from LGC Promochem, Teddington, UK. The cells were cultured in Eagle’s minimal essential medium (EMEM, containing 4.5 g L^–1 glucose) supplemented with a non-essential amino acid mixture, a selection of vitamins, and 10% heat-inactivated fetal bovine serum. The HCT-116 colon carcinoma cells and isogenic p53-knock-out subline were a gift of Prof. Bert Vogelstein from The Johns Hopkins Oncology Center. Cells were cultured in McCoy’s 5A medium supplemented with 10% heat-inactivated fetal bovine serum and 4 mM L-glutamine. All cell lines were incubated at 37 °C, in a 5% CO2, 95% air atmosphere.
(§3) MRC-5 non-cancerous human embryonic lung fibroblast and human colonic adeno-carcinoma cell lines (doxorubicin-sensitive Colo 205 and multidrug resistant Colo 320 colonic adenocarcinoma cells) were used to determine the effect of compounds on cell growth. The effects of increasing concentrations of compounds on cell growth were tested in 96-well flat-bottomed microtiter plates. The compounds were dissolved in DMSO and stock solutions of 10 mM were prepared. These were further diluted in the appropriate cell culture medium by twofold serial dilution starting from 100 or 10 μM for the compounds. The adherent human embryonal lung fibroblast cells were cultured in 96-well flat-bottomed microtiter plates using EMEM supplemented with 10% heat-inactivated fetal bovine serum. The density of the cells was adjusted to 1 × 10^4 cells in 100 μL per well, the cells were seeded for 24 h at 37 °C, 5% CO2, then the medium was removed from the plates containing the cells, and the dilutions of compounds previously made in a separate plate were added to the cells in 200 μL. In the case of the colonic adenocarcinoma cells, the twofold serial dilutions of compounds were prepared in 100 μL of RPMI 1640, horizontally. The semi-adherent colonic adenocarcinoma cells were treated with Trypsin-Versene (EDTA) solution. They were adjusted to a density of 1 × 10^4 cells in 100 μL of RPMI 1640 medium and were added to each well, with the exception of the medium control wells. The final volume of the wells containing compounds and cells was 200 μL. The culture plates were incubated at 37 °C for 72 h; at the end of the incubation period, 20 μL of MTT (thiazolyl blue tetrazolium bromide, Sigma) solution (from a stock solution of 5 mg mL^–1) was added to each well. After incubation at 37 °C for 4 h, 100 μL of sodium dodecyl sulfate (SDS) (Sigma) solution (10% in 0.01 M HCI) was added to each well and the plates were further incubated at 37 °C overnight. Cell growth was determined by measuring the optical density (OD) at 540/630 nm with a Multiscan EX ELISA reader (Thermo Labsystems, Cheshire, WA, USA). […] Curves were fitted by GraphPad Prism software[57] using the sigmoidal dose–response model (comparing variable and fixed slopes). The IC50 values were obtained from at least three independent experiments. Tests in adherent HCT-116 colon carcinoma cells and an isogenic p53-knock-out subline thereof were performed in a similar manner, with 1.5 × 10^3 cells seeded in 100 μL of McCoy’s 5A medium (Sigma-Aldrich) per well. […]

[2] = tested on: normal human embryonal lung fibroblast cells (MRC-5); test: MTT antiproliferative assay; format: cell-based; settings: read-out: IC50 MRC-5 benign, mean
Description: as §1, §2, §3

[3] = tested on: multidrug-resistant Colo320 human colon adenocarcinoma cells; test: MTT antiproliferative assay; format: cell-based; settings: for selectivity factor (SF) Colo320: IC50 MRC-5/IC50 Colo320; for IC50: MTT, 72 h
Description: as §1, §2, §3

[4] = Thermodynamic solubility, UV–vis of saturated solutions
Description: The concentration of the compounds was determined by UV–vis spectrophotometry using stock solutions of the compounds with a known concentration dissolved in pure DMSO and 50% (v/v) DMSO/buffered aqueous solution for the calibration.

[5] = Proton dissociation constants by UV–vis titration; format: physicochemical; settings: 30–70% (w/w) DMSO–water, 298 K, I = 0.10 M (KCl)
Description: The protonation processes of HL^1nm and its morpholine counterpart HL^1 (Chart 3) and the solution stability of their copper(II) complexes (1nm and 1) were characterized by UV–vis spectrophotometry. […] Based on the characteristic changes in the UV–vis spectra for HL^1nm in the pH range 2–6 (Figure 3a), two relatively well-separated proton dissociation processes were observed and their pKa values were determined (Table 1).
An Agilent Carry 8454 diode array spectrophotometer was used to record the UV–visible (UV–vis) spectra in the interval 200–800 nm. The path length was 2 or 0.5 cm. Spectrophotometric titrations were performed on samples containing the proligands HL^1, HL^1nm, or their copper(II) complexes (1 and 1nm; see Chart 2) by a KOH solution in the presence of 0.1 M KCl in a DMSO:water 30:70 (w/w) mixture as a solvent at 25.0 ± 0.1 °C in the pH range from 2 to 11. […] An Orion 710A pH meter equipped with a Metrohm combined electrode (type 6.0234.100) and a Metrohm 665 Dosimat burette were used for the pH measurements and titrations. […] The average water ionization constant (pKw) is 14.52 ± 0.05, which corresponds well to the literature data.[103] Argon was passed over the solutions during the titrations. Proton dissociation constants (pKa) of the ligand, overall stability constants (log β) of the copper(II) complexes, and the individual spectra of the various species present in the solution were calculated by the computer program PSEQUAD.[104] β (MpLqHr) is defined for the general equilibrium pM + qL + rH MpLqHr as β (MpLqHr) = [MpLqHr]/[M]^p[L]^q[H]^r where M denotes the copper(II) ion and L the completely deprotonated ligand. The calculations were always made from the experimental titration data measured in the absence of any precipitate in the solution.

Colo320 cells = test: Apoptosis assay, Annexin-V-FITC/PI flow cytometry; settings: 3 h induction
Description: An apoptosis assay was performed by flow cytometry via the analysis of multidrug-resistant Colo320 cells stained with Annexin-V-FITC and propidium iodide (PI).
Colo320 cells were treated at the indicated concentration of the compounds. The dual parametric dot plots combining Annexin-V (FL1) and PI (FL3) fluorescence show the viable cell population in the lower left quadrant Annexin-V–/PI– (Q4), the early apoptotic cells in the lower right quadrant Annexin-V+/PI– (Q3), and the late apoptotic and necrotic cells in the upper right quadrant Annexin-V+/PI+ (Q2).
The assay was carried out for selected compounds using an Annexin V-FITC Apoptosis Detection Kit (cat. no. APOAF-50TST) from Sigma according to the manufacturer’s instructions. The concentration of the Colo320 cell suspension was adjusted to approximately 0.5 × 10^6 cells/mL in an RPMI 1640 medium, and the cell suspension was distributed in 1 mL of aliquots into a 24-well plate and then incubated overnight at 37 °C and 5% CO2. On the following day, the medium was removed and replaced by 1 mL of RPMI medium containing the compounds except the control samples. […] After the incubation period, the samples were washed with PBS and fresh RPMI 1640 medium was added to the samples. The cells were incubated overnight at 37 °C and 5% CO2. The next day, 200 μL of 0.25% Trypsin (Trypsin-Versen) was added to the samples until cells appeared detached followed by the addition of 400 μL of RPMI 1640 medium supplemented with 10% bovine serum. The cells were collected in Eppendorf tubes and centrifuged at 2000g for 2 min. The harvested cells were resuspended in fresh serum-free RPMI 1640 culture medium. After this step, the apoptosis assay was carried out according to the instructions of the manufacturer. The fluorescence was analyzed immediately using a ParTec CyFlow flow cytometer (Partec GmbH, Münster, Germany).
• Apoptosis and DNA binding studies […]

[6] = pH 5, 20 mM MES buffer, water, 298 K
[7] = pH 7.4, 20 mM HEPES, water, 298 K

| Structure (SMILES) | selectivity factor (SF) Colo205 [1] | IC50 [1] [µM] | IC50 ([2]; 72 h) [µM] | selectivity factor (SF) Colo320 [3] | IC50 [3] [µM] | Thermodynamic solubility (S) [4, 6] [µM] | Thermodynamic solubility (S) [4, 7] [µM] | further results |
| --- | --- | --- | --- | --- | --- | --- | --- | --- |
| Brc1ccc2[nH]c3c(NN=Cc4ccc(CN5CCOCC5)cn4)nc4ccccc4c3c2c1.[Cl][Cu][Cl] [compound 6, CuCl2(HL^6)·1.5H2O] | 0.20 | 1.09 | 0.221 | 0.26 | 0.851 | – | – | Thermodynamic solubility (S) ([4]; pH 5): 6.6 µM; Thermodynamic solubility (S) ([4]; pH 7.4): 0.4 µM |
| CC(=NNC1=NCc2ccccc2-c2c1[nH]c1ccc(Br)cc21)c1ccccn1.[Cl][Cu][Cl] [4nm] | 2.29 | 0.083 | 0.19 | 0.54 | 0.35 | – | – | – |
| Brc1ccc2[nH]c3c(NN=Cc4ccccn4)nc4ccccc4c3c2c1.[Cl][Cu][Cl] [6nm] | – | – | – | – | – | 8.9 | 3.1 | – |
| C(=NNC1=NCc2ccccc2-c2c1[nH]c1ccccc21)c1ccccn1.[Cl][Cu][Cl] [1nm] | – | – | – | – | – | – | – | pKa [Cu(HL^1nm)]^2+ [5]: 4.32; pKa [Cu(L^1nm)]^+ [5]: 7.09 |
| C(=NNc1nc2ccccc2c2c1[nH]c1ccccc12)c1ccccn1.[Cl][Cu][Cl] [5nm] | – | – | – | – | – | 134 | 5.7 | – |
| CC(=NNc1nc2ccccc2c2c1[nH]c1ccccc12)c1ccc(CN2CCOCC2)cn1.[Cl][Cu][Cl] [compound 7, CuCl2(HL^7)·0.5H2O] | 6.65 | 0.098 | 0.652 | 4.38 | 0.149 | – | – | Thermodynamic solubility (S) ([4]; pH 5): 89.7 µM; Thermodynamic solubility (S) ([4]; pH 7.4): 38.3 µM |
| c1ccc2c(c1)Nc1c(ccc3ccccc13)S2 [M627, 12H-benzo[α]phenothiazine, reference compound] | – | – | – | – | – | – | – | Cell death % Q1 (Colo320 cells; 10 µM): 4.59%; Early apoptosis % Q3 (Colo320 cells; 10 µM): 12.4%; Late apoptosis and necrosis % Q2 (Colo320 cells; 10 µM): 31.5%; Cell death % Q1 (Colo320 cells; 20 µM): 7.85%; Early apoptosis % Q3 (Colo320 cells; 20 µM): 11.1%; Late apoptosis and necrosis % Q2 (Colo320 cells; 20 µM): 26.1% |
| C(=NN=c1[nH]c2ccccc2c2c1[nH]c1ccccc12)c1ccccn1 [HL^5nm] | – | – | – | – | – | 1.1 | 0.3 | – |
| COc1cccc2c1C(=O)c1c(O)c3c(c(O)c1C2=O)C[C@@](O)(C(=O)CO)C[C@@H]3O[C@H]1C[C@H](N)[C@H](O)[C@H](C)O1 [doxorubicin, reference compound] | 15.44 | – | – | 2.03 | – | – | – | IC50 ([1]; Homo sapiens, COLO 205): 0.712 µM; IC50 ([2]; Homo sapiens, MRC5, 72 h): 11 µM; IC50 ([3]; Homo sapiens, COLO 320): 5.43 µM |
| C/C(=N\N=C1/NCc2ccccc2-c2c1[nH]c1ccc(Br)cc21)c1ccccn1 [HL^4nm] | 1.22 | – | – | 0.01 | – | – | – | IC50 ([1]; Homo sapiens, COLO 205): 0.091 µM; IC50 ([2]; Homo sapiens, MRC5, 72 h): 0.111 µM; IC50 ([3]; Homo sapiens, COLO 320): 8.19 µM |
